# Results published in ChEMBL document CHEMBL6087474, “Discovery of an Efficacious RET PROTAC Degrader with Enhanced Antiproliferative Activity against Resistant Cancer Cells Harboring RET Solvent-Front Mutations” (J Med Chem, 2025).
# Tests used:
# BaF3 [1] = experiment: PROTAC activity at CRBN/KIF5B-RET (unknown origin) expressed in mouse BaF3 cells assessed as induction of RET degradation at 100 nM measured after 6 hrs by Western blot analysis relative to control; format: cell-based
# BaF3 [2] = experiment: PROTAC activity at CRBN/KIF5B-RET (unknown origin) expressed in mouse BaF3 cells assessed as induction of RET degradation at 1000 nM measured after 6 hrs by Western blot analysis relative to control; format: cell-based
# BaF3 [3] = experiment: PROTAC activity at CRBN/KIF5B-RET (unknown origin) expressed in mouse BaF3 cells assessed as induction of RET degradation at 10 nM measured after 6 hrs by Western blot analysis relative to control; format: cell-based
# BaF3 [4] = experiment: PROTAC activity at VHL/KIF5B-RET (unknown origin) expressed in mouse BaF3 cells assessed as induction of RET degradation at 1000 nM measured after 6 hrs by Western blot analysis relative to control; format: cell-based
# BaF3 [5] = experiment: PROTAC activity at VHL/KIF5B-RET (unknown origin) expressed in mouse BaF3 cells assessed as induction of RET degradation at 100 nM measured after 6 hrs by Western blot analysis relative to control; format: cell-based
# BaF3 [6] = experiment: PROTAC activity at VHL/KIF5B-RET (unknown origin) expressed in mouse BaF3 cells assessed as induction of RET degradation at 10 nM measured after 6 hrs by Western blot analysis relative to control; format: cell-based
# BaF3 [7] = experiment: Antiproliferative activity against mouse BaF3 cells stably expressing CCDC6-RET-V804M mutant incubated for 72 hrs by CCK-8 assay; format: functional, cell-based; details: BaF3, 72 h
# BaF3 [8] = experiment: Antiproliferative activity against mouse BaF3 cells stably expressing KIF5B-RET-V804L mutant incubated for 72 hrs by CCK-8 assay; format: functional, cell-based; details: BaF3, 72 h
# BaF3 [9] = experiment: Antiproliferative activity against mouse BaF3 cells stably expressing KIF5B-RET-G810S mutant incubated for 72 hrs by CCK-8 assay; format: functional, cell-based; details: BaF3, 72 h
# BaF3 [10] = experiment: Antiproliferative activity against mouse BaF3 cells stably expressing KIF5B-RET-V804M mutant incubated for 72 hrs by CCK-8 assay; format: functional, cell-based; details: BaF3, 72 h
# BaF3 [11] = experiment: Antiproliferative activity against mouse BaF3 cells stably expressing KIF5B-RET-G810R mutant incubated for 72 hrs by CCK-8 assay; format: functional, cell-based; details: BaF3, 72 h
# BaF3 [12] = experiment: Antiproliferative activity against mouse BaF3 cells stably expressing KIF5B-RET-G810C mutant incubated for 72 hrs by CCK-8 assay; format: functional, cell-based; details: BaF3, 72 h
# BaF3 [13] = experiment: Antiproliferative activity against mouse BaF3 cells stably expressing CCDC6-RET-G810C mutant incubated for 72 hrs by CCK-8 assay; format: functional, cell-based; details: BaF3, 72 h
# BaF3 [14] = experiment: Antiproliferative activity against mouse BaF3 cells stably expressing KIF5B-RET fusion protein incubated for 72 hrs by CCK-8 assay; format: functional, cell-based; details: BaF3, 72 h
# BaF3 [15] = experiment: Antiproliferative activity against mouse BaF3 cells stably expressing CCDC6-RET incubated for 72 hrs by CCK-8 assay; format: functional, cell-based; details: BaF3, 72 h
SMILES,Activity (BaF3 [1]) [%],Activity (BaF3 [2]) [%],Activity (BaF3 [3]) [%],Activity (BaF3 [4]) [%],Activity (BaF3 [5]) [%],Activity (BaF3 [6]) [%],further results
COc1ccc(CN2C3CC2CN(c2ccc(-c4cc(-c5cnn(CCC#Cc6cccc7c6CN(C6CCC(=O)NC6=O)C7=O)c5)cn5ncc(C#N)c45)cn2)C3)cn1 (centres undefined),26,25,15,,,,
COc1ccc(CN2C3CC2CN(c2ccc(-c4cc(-c5cnn(C6CCN(CCCC#Cc7cccc8c7CN(C7CCC(=O)NC7=O)C8=O)CC6)c5)cn5ncc(C#N)c45)cn2)C3)cn1 (centres undefined),35,51,19,,,,
COc1ccc(CN2C3CC2CN(c2ccc(-c4cc(-c5cnn(CCCCCCC(=O)N[C@H](C(=O)N6C[C@H](O)C[C@H]6C(=O)N[C@@H](C)c6ccc(-c7scnc7C)cc6)C(C)(C)C)c5)cn5ncc(C#N)c45)cn2)C3)cn1,,,,51,49,16,
COc1ccc(CN2C3CC2CN(c2ccc(-c4cc(-c5cnn(CCOCCOCCC(=O)N[C@H](C(=O)N6C[C@H](O)C[C@H]6C(=O)N[C@@H](C)c6ccc(-c7scnc7C)cc6)C(C)(C)C)c5)cn5ncc(C#N)c45)cn2)C3)cn1,,,,-5,1,8,
COc1ccc(CN2C3CC2CN(c2ccc(-c4cc(-c5cnn(CCCCC#Cc6cccc7c6CN(C6CCC(=O)NC6=O)C7=O)c5)cn5ncc(C#N)c45)cn2)C3)cn1 (centres undefined),23,21,19,,,,
COc1ccc(CN2C3CC2CN(c2ccc(-c4cc(-c5cnn(CCCCC(=O)N[C@H](C(=O)N6C[C@H](O)C[C@H]6C(=O)N[C@@H](C)c6ccc(-c7scnc7C)cc6)C(C)(C)C)c5)cn5ncc(C#N)c45)cn2)C3)cn1,,,,-11,-11,-14,
COc1ccc(CN2C3CC2CN(c2ccc(-c4cc(-c5cnn(C6CCN(CCCCCCCC#Cc7cccc8c7CN(C7CCC(=O)NC7=O)C8=O)CC6)c5)cn5ncc(C#N)c45)cn2)C3)cn1 (centres undefined),16,30,12,,,,
COc1ccc(CN2C3CC2CN(c2ccc(-c4cc(-c5cnn(C6CCN(CC(=O)N7CCN(c8ccc9c(c8)C(=O)N(C8CCC(=O)NC8=O)C9=O)CC7)CC6)c5)cn5ncc(C#N)c45)cn2)C3)cn1 (centres undefined),34,32,30,,,,
COc1ccc(CN2C3CC2CN(c2ccc(-c4cc(-c5cnn(CCCCCCC#Cc6cccc7c6CN(C6CCC(=O)NC6=O)C7=O)c5)cn5ncc(C#N)c45)cn2)C3)cn1 (centres undefined),31,22,27,,,,
COc1ccc(CN2C3CC2CN(c2ccc(-c4cc(-c5cnn(C6CCN(CCCCCC#Cc7cccc8c7CN(C7CCC(=O)N(C)C7=O)C8=O)CC6)c5)cn5ncc(C#N)c45)cn2)C3)cn1 (centres undefined),,,,,,,IC50 (BaF3 [7]): 20 nM; IC50 (BaF3 [8]): 50 nM; IC50 (BaF3 [9]): 240 nM; IC50 (BaF3 [10]): 70 nM; IC50 (BaF3 [11]): 1690 nM; IC50 (BaF3 [12]): 700 nM; IC50 (BaF3 [13]): 100 nM; IC50 (BaF3 [14]): 20 nM; IC50 (BaF3 [15]): 10 nM
COc1ccc(CN2C3CC2CN(c2ccc(-c4cc(-c5cnn(C6CCN(CCCCCCC#Cc7cccc8c7CN(C7CCC(=O)NC7=O)C8=O)CC6)c5)cn5ncc(C#N)c45)cn2)C3)cn1 (centres undefined),46,47,35,,,,
COc1ccc(CN2C3CC2CN(c2ccc(-c4cc(-c5cnn(C6CCN(CCCCC#Cc7cccc8c7CN(C7CCC(=O)NC7=O)C8=O)CC6)c5)cn5ncc(C#N)c45)cn2)C3)cn1 (centres undefined),42,48,16,,,,
COc1ccc(CN2C3CC2CN(c2ccc(-c4cc(-c5cnn(C6CCN(C(=O)CN7CCN(c8ccc9c(c8)C(=O)N(C8CCC(=O)NC8=O)C9=O)CC7)CC6)c5)cn5ncc(C#N)c45)cn2)C3)cn1 (centres undefined),49,41,37,,,,
COc1ccc(CN2C3CC2CN(c2ccc(-c4cc(-c5cnn(CCCCCCCCCCC(=O)N[C@H](C(=O)N6C[C@H](O)C[C@H]6C(=O)N[C@@H](C)c6ccc(-c7scnc7C)cc6)C(C)(C)C)c5)cn5ncc(C#N)c45)cn2)C3)cn1,,,,32,39,17,
COc1ccc(CN2C3CC2CN(c2ccc(-c4cc(-c5cnn(C6CCN(CC#Cc7cccc8c7CN(C7CCC(=O)NC7=O)C8=O)CC6)c5)cn5ncc(C#N)c45)cn2)C3)cn1 (centres undefined),7,14,9,,,,
COc1ccc(CN2C3CC2CN(c2ccc(-c4cc(-c5cnn(CCCCCCCCC(=O)N[C@H](C(=O)N6C[C@H](O)C[C@H]6C(=O)N[C@@H](C)c6ccc(-c7scnc7C)cc6)C(C)(C)C)c5)cn5ncc(C#N)c45)cn2)C3)cn1,,,,39,34,1,
COc1ccc(CN2C3CC2CN(c2ccc(-c4cc(-c5cnn(CCCCCCCCC#Cc6cccc7c6CN(C6CCC(=O)NC6=O)C7=O)c5)cn5ncc(C#N)c45)cn2)C3)cn1 (centres undefined),47,34,17,,,,
COc1ccc(CN2C3CC2CN(c2ccc(-c4cc(OCC(C)(C)O)cn5ncc(C#N)c45)cn2)C3)cn1 [SELPERCATINIB],,,,,,,IC50 (BaF3 [7]): 50 nM; IC50 (BaF3 [8]): 30 nM; IC50 (BaF3 [9]): 570 nM; IC50 (BaF3 [11]): 1060 nM; IC50 (BaF3 [12]): 690 nM; IC50 (BaF3 [13]): 350 nM
COc1ccc(CN2C3CC2CN(c2ccc(-c4cc(-c5cnn(CCCCCCCCCCC#Cc6cccc7c6CN(C6CCC(=O)NC6=O)C7=O)c5)cn5ncc(C#N)c45)cn2)C3)cn1 (centres undefined),39,54,15,,,,
COc1ccc(CN2C3CC2CN(c2ccc(-c4cc(-c5cnn(CCCCCCCCCCCCCCC(=O)N[C@H](C(=O)N6C[C@H](O)C[C@H]6C(=O)N[C@@H](C)c6ccc(-c7scnc7C)cc6)C(C)(C)C)c5)cn5ncc(C#N)c45)cn2)C3)cn1,,,,20,3,-6,
